Literature values as cited in US20030003131A1, “Method for manufacture of free-flowing powder containing water-dispersible sterols” (priority 2001, published 2003).
Where two headings read alike, the source gives them in different places.

Legend:
cholesterol absorption [1] = settings: oil-free delivery system with emulsifier
cholesterol absorption [2] = system: cholesterol absorption
LDL cholesterol = settings: 2.8 g sitostanol/day given as sitostanol ester in margarine

CC[C@H](CC[C@@H](C)[C@H]1CC[C@H]2[C@@H]3CC[C@H]4C[C@@H](O)CC[C@]4(C)[C@H]3CC[C@]12C)C(C)C [sitostanol]
reduction of serum cholesterol (serum cholesterol; 1.5 g/day, subjects with severe hypercholesterolemia): 15% | effect on serum cholesterol (serum cholesterol; 3 g/day, subjects with moderate hypercholesterolemia): no effect | reduction of cholesterol absorption (cholesterol absorption [1]): ≤ 37%

CC[C@H](CC[C@@H](C)[C@H]1CC[C@H]2[C@@H]3CC=C4C[C@@H](O)CC[C@]4(C)[C@H]3CC[C@]12C)C(C)C [sitosterol]
decrease of serum cholesterol levels (serum cholesterol; 3-9 g/day of powdered sitosterol, dose-response study): 12% | reduction of serum cholesterol (serum cholesterol; doses of 5-18 g sitosterol/day): 16-20%

neomycin
effect on cholesterol absorption (cholesterol absorption [2]; orally administered): reduces cholesterol absorption effectively

sitostanol ester
reduction of LDL cholesterol (LDL cholesterol): 16% | less effective at reducing cholesterol absorption compared to the unesterified sterol (cholesterol absorption [2]; humans, ester dissolved in dietary fat): 21%
